Assay results from the NIST ThermoML archive (doi:10.1016/j.jct.2017.02.023).
Numbers after ± are expanded uncertainties.

Tests used:
[1] = 81.5 kPa, Liquid, Vibrating tube method
[2] = refractive index (Na D-line) (dimensionless); conditions: 81.5 kPa, Liquid, Standard Abbe refractometry
[3] = xn = mol fraction of the nth substance listed; conditions: 81.5 kPa, Liquid, Vibrating tube method, x1 = 1
[4] = refractive index (Na D-line) (dimensionless); xn = mol fraction of the nth substance listed; conditions: 81.5 kPa, Liquid, Standard Abbe refractometry, x1 = 1

SMILES | mass density ([1]; 298.15 K) [kg/m3] | mass density ([1]; 308.15 K) [kg/m3] | mass density ([1]; 318.15 K) [kg/m3] | mass density ([1]; 328.15 K) [kg/m3] | refractive index ([2]; 298.15 K) | refractive index ([2]; 308.15 K) | refractive index ([2]; 318.15 K) | refractive index ([2]; 328.15 K) | mass density ([3]; 298.15 K) [kg/m3] | mass density ([3]; 308.15 K) [kg/m3] | mass density ([3]; 318.15 K) [kg/m3] | mass density ([3]; 328.15 K) [kg/m3] | refractive index ([4]; 298.15 K) | refractive index ([4]; 308.15 K) | refractive index ([4]; 318.15 K) | refractive index ([4]; 328.15 K)
CCCCCCC(C)O (centres undefined) [2-octanol] | 817.05 ± 1.6 | 809.43 ± 1.6 | 801.32 ± 1.6 | 793.06 ± 1.6 | 1.42483 ± 0.0016 | 1.42073 ± 0.0016 | 1.41648 ± 0.0016 | 1.41224 ± 0.0016 | – | – | – | – | – | – | – | –
CCC(C)O (centres undefined) [butan-2-ol] | 802.71 ± 1.6 | 794.2 ± 1.6 | 785.32 ± 1.6 | 775.52 ± 1.6 | 1.39544 ± 0.0016 | 1.39105 ± 0.0016 | 1.38646 ± 0.0016 | 1.38175 ± 0.0016 | – | – | – | – | – | – | – | –
CNC1CCCCC1 [N-methylcyclohexylamine] | 865.2 ± 1.6 | 856.57 ± 1.6 | 847.67 ± 1.6 | 838.68 ± 1.6 | 1.45306 ± 0.0016 | 1.44812 ± 0.0016 | 1.4431 ± 0.0016 | 1.43809 ± 0.0016 | – | – | – | – | – | – | – | –
CCCCC(C)O (centres undefined) [2-hexanol] | 810.17 ± 1.6 | 801.94 ± 1.6 | 793.57 ± 1.6 | 784.6 ± 1.6 | 1.41296 ± 0.0016 | 1.40853 ± 0.0016 | 1.40413 ± 0.0016 | 1.3996 ± 0.0016 | – | – | – | – | – | – | – | –
CCCC(C)O (centres undefined) [pentan-2-ol] + CNC1CCCCC1 | – | – | – | – | – | – | – | – | 805.37 ± 1.6 | 796.95 ± 1.6 | 788.38 ± 1.6 | 779.17 ± 1.6 | 1.4045 ± 0.0016 | 1.40029 ± 0.0016 | 1.39586 ± 0.0016 | 1.39126 ± 0.0016
CCCCCC(C)O (centres undefined) [2-heptanol] | 813.36 ± 1.6 | 805.72 ± 1.6 | 797.65 ± 1.6 | 789.38 ± 1.6 | 1.41924 ± 0.0016 | 1.41505 ± 0.0016 | 1.41076 ± 0.0016 | 1.40647 ± 0.0016 | – | – | – | – | – | – | – | –
CC(C)O [propan-2-ol] + CNC1CCCCC1 | – | – | – | – | – | – | – | – | 781.05 ± 1.6 | 772.41 ± 1.6 | 763.41 ± 1.6 | 753.12 ± 1.6 | 1.37511 ± 0.0016 | 1.37097 ± 0.0016 | 1.36665 ± 0.0016 | 1.36181 ± 0.0016
CCCCCCC(C)O (centres undefined) [2-octanol] + CNC1CCCCC1 | – | – | – | – | – | – | – | – | 817.05 ± 1.6 | 809.43 ± 1.6 | 801.32 ± 1.6 | 793.06 ± 1.6 | 1.42483 ± 0.0016 | 1.42073 ± 0.0016 | 1.41648 ± 0.0016 | 1.41224 ± 0.0016
CC(C)O [propan-2-ol] | 781.05 ± 1.6 | 772.41 ± 1.6 | 763.41 ± 1.6 | 753.12 ± 1.6 | 1.37511 ± 0.0016 | 1.37097 ± 0.0016 | 1.36665 ± 0.0016 | 1.36181 ± 0.0016 | – | – | – | – | – | – | – | –
CCCC(C)O (centres undefined) [pentan-2-ol] | 805.37 ± 1.6 | 796.95 ± 1.6 | 788.38 ± 1.6 | 779.17 ± 1.6 | 1.4045 ± 0.0016 | 1.40029 ± 0.0016 | 1.39586 ± 0.0016 | 1.39126 ± 0.0016 | – | – | – | – | – | – | – | –
CCC(C)O (centres undefined) [butan-2-ol] + CNC1CCCCC1 | – | – | – | – | – | – | – | – | 802.71 ± 1.6 | 794.2 ± 1.6 | 785.32 ± 1.6 | 775.52 ± 1.6 | 1.39544 ± 0.0016 | 1.39105 ± 0.0016 | 1.38646 ± 0.0016 | 1.38175 ± 0.0016
CCCCC(C)O (centres undefined) [2-hexanol] + CNC1CCCCC1 | – | – | – | – | – | – | – | – | 810.17 ± 1.6 | 801.94 ± 1.6 | 793.57 ± 1.6 | 784.6 ± 1.6 | 1.41296 ± 0.0016 | 1.40853 ± 0.0016 | 1.40413 ± 0.0016 | 1.3996 ± 0.0016
CCCCCC(C)O (centres undefined) [2-heptanol] + CNC1CCCCC1 | – | – | – | – | – | – | – | – | 813.36 ± 1.6 | 805.72 ± 1.6 | 797.65 ± 1.6 | 789.38 ± 1.6 | 1.41924 ± 0.0016 | 1.41505 ± 0.0016 | 1.41076 ± 0.0016 | 1.40647 ± 0.0016
